Results on two molecules are retold here after patent US20070141109A1, “Local Deliver of 17-Beta Estradiol for Preventing Vascular Intimal Hyperplasia and for Improving Vascular Endothelium Function after Vascular Injury” (priority 1999, published 2007).

Each structure is given as a SMILES string. Entries after “also recorded” stand apart in the source; their conditions may differ.

For series [1] the following is noted: rats, estimated; cited from earlier work.
The subject of series [2] is coronary arteries subjected to PTCA. Description: Morphometric analysis of neointima hyperplasia after PTCA and local delivery. Type of series: in vivo, pigs. As to the method:
Eighteen juvenile farm pigs (9 female, and 9 castrated male) weighing 20-25 kg were studied. The study was approved by, and conducted in accordance with, the guidelines of the Animal Care and Ethical Research Committee of the Montreal Heart Institute. Before the procedure, animals were given 650 mg of acetylsalicylic acid and 30 mg of nifedipine orally, premedicated with intramuscular injection of 6 mg/kg of a mixture of tiletamine hydrochloride and zolazepam hydrochloride, and given 0.05 mg of atropine. The invasive procedure was performed under general anesthesia with a mixture of isoflurane (1 to 1.5%) and oxygen enriched air. The right femoral artery was cannulated percutaneously, and an 8 Fr arterial sheath was introduced. After arterial access had been obtained, 100 mg of lidocaine and 250 U/kg of heparin were administered intra-arterially via the sheath. Activated coagulation time was maintained at >300 seconds throughout the procedure. […] Standard PTCA equipment was used. An 8 Fr right Amplatz guiding catheter and right Judkins guiding catheter were used for cannulation of the left and right coronary arteries, respectively. PTCA was performed with a balloon size chosen to correspond to a balloon/artery ratio of 1.1-1.3. Three 30-second inflations at 10 atm pressure were performed with a 30-second interval between each inflation. Inflations were performed adjacent to major side branches to facilitate identification during harvesting, taking precaution not to include any side branch in the intended PTCA site. The left anterior descending, left circumflex, and right coronary arteries of each animal were subjected to PTCA. After PTCA, each coronary artery of an animal was randomized to receive either 600 μg of 17-beta estradiol locally, or vehicle alone locally, or PTCA only. The chemicals 17-beta estradiol and its vehicle 2-hydroxypropyl-beta-cyclodextrin (HPCD) were purchased from Sigma Chemical Co. The InfusaSleeve catheter (Local Med, Inc.) was used for local delivery.^12 Five ml of the designated substance was delivered at a driving pressure of 10 atm and support balloon pressure of 6 atm. Of the 18 animals, 2 died a few days after PTCA, and were excluded; thus, 16 animals were analyzed. Twelve animals were euthanized at 28 days, and 4 at 7 days. After premedication and anesthesia, the right internal jugular vein and common carotid artery were cannulated. Following cross-clamping of the descending thoracic aorta exposed via a left lateral thoracotomy, exsanguination was performed, with simultaneous administration of 1 l of 0.9% NaCl solution. The heart was perfusion-fixed in vivo with 2 l of 10% buffered formalin at 200 mm Hg pressure, removed from the animal, and placed in 10% buffered formalin solution. Coronary arteries were then dissected free from surrounding tissues. The site of PTCA was identified in relation to adjacent side branches, which served as landmarks. The injured segment was harvested with a 1 cm normal segment proximal and distal to the injured site. Serial sections 3 to 5 mm long were made from the harvested segment, with a minimum of at least 3 sections (maximum 5) from each PTCA site. Sections were stored in buffered 10% formalin and subjected to dehydration with increasing concentrations of alcohol, followed by treatment with xylene and paraffin. Each section was then cut to slices of 6 μm thickness with a microtome (Olympus cut 4060 E), and stained with Verhoeff's stain for morphometric analysis. Measurements were made with a video microscope (Leitz Diaplan, equipped with a Sony DXC 970 MD color video camera) linked to a 486 personal computer and customized software. A minimum of 3 sections for each injured segment were analyzed and results averaged. Analyses were made by a single observer unaware of the treatment group to which each segment had bee allocated. Randomly selected sections were viewed by a second observer (also blinded to protocol) independently; inter-observer variability was <5%. […]

Series [3] relates to endothelium of injured coronary arteries. Description: Reendothelialization by lectin Dolichos biflorus agglutinin immunohistochemistry. Type of series: in vivo, pigs. Here is the method: (§1) The animals were euthanized at 4 weeks. Under general anesthesia as described above, exsanguination was performed with replacement by 1 l of 0.9% NaCl solution. The heart was perfusion-fixed in vivo with 2 l of 10% buffered formalin at 200 mm Hg pressure. The heart was then removed, and the coronary arteries were harvested immediately. From the injured segment (identified in relation to side branches), serial sections of 3-5 mm were made, and stored in 10% buffered formalin solution. The sections were then treated with incremental concentrations of alcohol followed by treatment with xylene and paraffin. Slices of 6:m thickness were prepared, and stained with Verhoeff's stain for assessment of tissue response to injury. […] The % of reendothelialization and, the % of endothelial nitric oxide synthase (eNOS) expression were calculated as follows: (the total length of the luminal surface staining positively/the perimeter of the lumen)×100, respectively. Analysis was performed by an independent examiner with no knowledge of the treatment groups to which the sections belonged. […]

For series [4], the system named is proliferating SMC (PCNA-positive). The series is described as follows: PCNA immunohistochemistry of the proliferative response to injury. Type of series: in vivo, pigs. As to conditions: 7 days after PTCA. Here is the method:
Following slicing with a microtome and blocking of non-specific antibodies, the sections were treated with mouse anti-proliferating cell nuclear antigen (PCNA) antibodies and diluted biotinylated goat anti-mouse antibodies. They were then incubated with avidin-biotin (Elite ABC Kit, Vector Laboratories), and developed with 3,3′-diaminobenzidine (Vector Laboratories). They were finally counter-stained with hematoxylin. Porcine liver cells were used as a positive control. For each section, a 6 μm slice counter-stained with hematoxylin without treatment with the primary antibody (mouse anti-PCNA) served as a negative control. The proliferative response to injury was studied by immunohistochemical analysis of samples from animals euthanized at 7 days. The % proliferating SMC was obtained by dividing the number of PCNA-positive SMC by the total number of SMC in each field; separate measurements were made for neointima and media layers. The proliferating cells were identified as SMC by positive staining of parallel sections with a smooth muscle actin antibody. To standardize comparison among treatment groups, measurements were obtained at 4 fixed locations separated by 90° sites for each section, and the results averaged.

For series [5], the system named is coronary arteries subjected to PTCA. Description: Response to intracoronary acetylcholine by quantitative coronary angiography after PTCA. In kind it is in vivo, pigs. Here is the method:
The study protocol was approved by the Animal Care and Ethical Research Committee of the Montreal Heart Institute. Juvenile farm pigs weighing 20-25 kg (1 female, and 8 castrated males) were used. On the day of the experiment, animals received 650 mg of acetylsalicylic acid and 30 mg of nifedipine orally, were premedicated with 6 mg/kg of tiletamine hydrochloride and zolazepam hydrochloride, and were given 0.05 mg of atropine intramuscularly. Under general anesthesia (a mixture of 1-1.5% isoflurane and oxygen enriched air), the right femoral artery was cannulated percutaneously. An 8 Fr arterial sheath was introduced, and […] of lidocaine and 250 U/kg of heparin were administered intra-arterially. Additional heparin was administered during PTCA if needed, to maintain an activated coagulation time of >300 seconds.
An 8 Fr right Amplatz guiding catheter and right Judkins guiding catheter were used for cannulation of the left and right coronary arteries, respectively. A standard balloon catheter (corresponding to a balloon/artery ratio of 1.1-1.3:1) was advanced over a 0.014″ floppy guide wire, and 3 successive 30-second inflations at 10 atm pressure were made with a 30 second interval between each inflation. PTCA was performed on all 3 coronary […] of each animal. For local delivery, the InfusaSleeve catheter (LocalMed Inc.) was used, which permits safe drug delivery with negligible additional injury (7). After balloon dilatation, each coronary artery of an animal was randomized to receive either 600:g of 17-beta estradiol (in 5 ml), vehicle alone (5 ml), or PTCA only. The vehicle 2-hydroxypropyl-beta-cyclodextrin (HPCD), and 17-beta estradiol were obtained from Sigma Chem. Co. For local delivery with the InfusaSleeve catheter, a proximal driving pressure of 10 atm and support balloon pressure of 6 atm were utilized.
All 9 animals underwent cardiac catheterization at the end of 4 weeks. After a baseline coronary angiogram, selective cannulation of the proximal portion of a coronary artery was performed with a single lumen balloon catheter (TotalCross, Schneider) for the administration of vasoactive agents. Acetylcholine (Ach) in increasing concentrations of 10^−7 M, 10^−6 M, 10^−5 M, 10^−4 M, was successively infused through the lumen port of the catheter. Each dose was administered for a duration of 3 minutes at a constant rate of 1 ml/min using an infusion pump. Coronary angiography was performed at the end of each dose. After infusion of the highest concentration of Ach (10^−4 M and angiography, 100:g of nitroglycerin was administered via the lumen port of the catheter, and a coronary angiogram performed. The same protocol was repeated for the other 2 coronary arteries. Heart rate, blood pressure, and ECG were monitored continuously throughout the experiment.
Coronary angiography was performed with a single plane imaging system (Electromed Intl). […] Care was taken to maintain the same angulation during angiography of a segment throughout the procedure. Ionic contrast (MD-76, Mallinckrodt Medical Inc) was used throughout the experiment. Images were captured at a frame speed of 30 frames/sec, and stored digitally. A segment of contrast-filled guiding catheter was included in every frame, for the purpose of calibration. Calibration was performed using the known diameter of the contrast-filled guiding catheter as the reference segment, to avoid error due to magnification. […]

For series [6], the system named is human umbilical vein endothelial cells. As to conditions: HUVEC exposed to tumor necrosis factor; cited from earlier work.
Series [7] has as its system endothelial nitric oxide synthase (eNOS). Description: eNOS expression by immunohistochemistry. Type of series: in vivo, pigs. As to the method: as §1
Where [8] appears, read: 600 μg locally after PTCA, 28 days, mean ± SD.

Regarding `CC(O)COC[C@H]1O[C@@H]2O[C@H]3[C@H](O)[C@@H](O)[C@@H](O[C@H]4[C@H](O)[C@@H](O)[C@@H](O[C@H]5[C@H](O)[C@@H](O)[C@@H](O[C@H]6[C@H](O)[C@@H](O)[C@@H](O[C@H]7[C@H](O)[C@@H](O)[C@@H](O[C@H]8[C@H](O)[C@@H](O)[C@@H](O[C@H]1[C@H](O)[C@H]2O)O[C@@H]8COCC(C)O)O[C@@H]7COCC(C)O)O[C@@H]6COCC(C)O)O[C@@H]5COCC(C)O)O[C@@H]4COCC(C)O)O[C@@H]3COCC(C)O` (stereo partly drawn) [HPCD, 2-hydroxypropyl-beta-cyclodextrin], the “toxic dose (nephrotoxicity)” value in series [1] is on record as 200 mg/kg.

Take `C[C@]12CC[C@@H]3c4ccc(O)cc4CC[C@H]3[C@@H]1CC[C@@H]2O` [17-beta estradiol]: in series [2] (setting [8]), the “% neointima” value amounted to 12.16 ± 8.89%, the “% stenosis” value is recorded as 15.67 ± 11.13%, the “EELref/EELinj (vascular remodeling)” value is reported as 1.01±0.16 and the Neointima area turned out to be 0.4 ± 0.3 mm^2. In series [2] (setting [8]), this molecule gave a Neointima/Media area of 0.59 ± 0.48 and a Restenotic index of 1.3 ± 0.5. Further, the “decrease of neointima formation” value in series [2] (compared to PTCA only, 28 days) is given as 54.6%. Moreover, the “decrease of neointima formation” value in series [2] (compared to vehicle alone, 28 days) came to 64.9%. Further, in series [2] (doses of 200 and 400 μg, local), the “performance of lower doses” value is “as performing as the dose of 600 μg”. Also, in series [2] (female pigs), the “% neointima” value came to 8.29 ± 3.72%, the “% stenosis” value is reported as 11.09 ± 5.16%, the Neointima area amounted to 0.25 ± 0.15 mm^2 and the Neointima/Media area is listed as 0.32 ± 0.16. The molecule also came in with a Restenotic index in series [2] (female pigs, 5 segments) of 1.37 ± 0.45. For the same molecule, the “neointima hyperplasia compared to PTCA only or vehicle alone” value in series [2] (local delivery, 28 days, in words) was “markedly less neointima hyperplasia; also recorded: significantly less neointima hyperplasia”. In series [2] (male pigs), the “% neointima” value is given as 14.93 ± 10.68%, the “% stenosis” value came to 18.93 ± 13.39%, the Neointima area is recorded as 0.51 ± 0.34 mm^2 and the Neointima/Media area stood at 0.78 ± 0.55. The Restenotic index in series [2] (male pigs, 7 segments) worked out at 1.2 ± 0.59. Also, the Reendothelialization in series [3] (4 weeks after PTCA) is 90.6±5.5%. The “reendothelialization compared to PTCA only and vehicle” value in series [3] (FIG. 4, in words) is “reendothelialization to a greater degree”. Moreover, in series [4], the “% PCNA-positive SMC in the media” value is 0.4±0.3% and the “% of PCNA-positive SMC in the neointima” value is listed as 0.43±0.52%. Besides, the “Diameter-basal (basal coronary artery diameter)” value in series [5] (4 weeks after PTCA and 600 μg locally) is on record as 2.53±0.6 mm. Also, the “Diameter-post Ach” value in series [5] (Ach 10^−4M, 4 weeks) turned out to be 2.28±0.61 mm. The “coronary artery diameter after nitroglycerin” value in series [5] (after 10^−4 M Ach then nitroglycerin, 4 weeks) came out at 2.61±0.48 mm. In addition, in series [5] (any Ach concentration used, in words), the “vasoconstrictive response to Ach” value was “no significant vasoconstrictive response”. For the same molecule, in series [5] (during the local delivery or intracoronary infusion of vasoactive agents), the “changes in heart rate, ECG, or blood pressure” value was “No changes”. The decrease in apoptosis in series [6] is recorded as 50%. Further, the “Endothelial nitric oxide synthase expression” value in series [7] (4 weeks after PTCA) is given as 35.6±11.8%. In addition, the “expression of eNOS compared to PTCA only and vehicle” value in series [7] (FIG. 5, in words) is on record as “greater expression of eNOS”.
